The test system of assay [1] is phenyl-p-quinone writhing in mice. In words: Analgesic activity: phenyl-p-quinone induced writhing in mice. The format is in vivo, male T/O mice. Particulars: 1 hour prior to phenyl-p-quinone injection, observed 8 minutes, Litchfield and Wilcoxon; for ED50: Mus musculus, po, read-out: ED50 (mice prevented from writhing). As for the experimental part:
Groups of 10 male T/O mice weighing between 20 and 25 g were injected intraperitoneally with 0.2 ml of a 0.02% solution of phenyl-p-quinone maintained at 37° C. […] Compounds were administered orally 1 hour prior to phenyl-p-quinone injection. The percentage of mice prevented from writhing in each group was plotted against dose of compound on log probit paper and the ED50 was calculated by the method of Litchfield, J. T. and Wilcoxon, F. (1949), J. Pharmac. exp. Ther., 96 (2), 99-113.

For assay [2], the system named is carrageenin-induced oedema in rat paw. In words: Anti-inflammatory activity: standard rat paw carrageenin-induced oedema test. It counts as in vivo, male Wistar rats. Particulars: 1 hr before carrageenin. Here is the method: The sodium salt of compound (1) was tested for anti-inflammatory activity by the standard rat paw carrageenin-induced oedema test:
Groups of 8 male Wistar rats weighing between 120 and 165 g. were dosed orally with the compound 1 hr. before the sub-cutaneous injection of 0.1 ml 1.5% carrageenin into a paw to induce oedema. The duration of the oedema was 3-31/2 hr. The significance of results was assessed by Student's `t` test.
On the technique in general: In the carrageenan paw model, swelling and tenderness develop within hours.

The structures appear in SMILES notation. Where a name gives a salt, the structure may show the parent alone.

Usually ED50 stands for the midpoint of the dose-response relation.

`Cn1c(CC(=O)O)cc(C(F)(F)F)c1C(=O)c1ccc(Cl)cc1` [sodium salt of compound (1)]: the “ED50 (mice prevented from writhing)” value in assay [1] (oral, listed as No salt thereof) stood at 1.6 mg/kg p.o. Further, the “% inhibition of oedema w.r.t. methylcellulose control” value in assay [2] (1.67 mg/kg p.o., *0.001 < p < 0.01) is 18%; in assay [2] (5 mg/kg p.o., **p < 0.001), 25%; in assay [2] (15 mg/kg p.o., **p < 0.001), 30%. For the same molecule, in assay [2] (rat, oral, read-out: ED25 (inhibition of oedema)), the ED25 turned out to be 5.5 mg/kg.

As for `CC(=O)CCc1cc(C(F)(F)F)c(C(=O)c2ccc(Cl)cc2)n1C` [(13), 4-[5'-(4"-chlorobenzoyl)-1'-methyl-4'-trifluoromethyl-2'-pyroyl]butan-2-one], in assay [1], the ED50 is 25 mg/kg.

Consider `Cn1c(CC(=O)O)cc(C(F)(F)F)c1C(=O)c1ccc(Cl)cc1` [(1), 5-p-Chlorobenzoyl-1-methyl-4-trifluoromethylpyrrole-2-acetic acid], for which the median effective dose (ED50) in assay [1] was 1.75 mg/kg.
